According to US6914045B2, “Glycopeptide antibiotics” (Wyeth Holdings Corporation, priority 2001, dated 2005):
≈ marks a conversion by molar mass, not a printed value.

Legend:
Test in all cases: in vitro antibacterial evaluation, MIC by broth dilution
Type in all cases: cell-based
Enterococcus sp. = conditions: broth dilution, 18 hours at 35° C.
Method in brief: (§1)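 Broth dilution per NCCLS M7-A2 in Mueller-Hinton II medium, inoculum 5×10^5 CFU/mL, antibiotic range 64-0.06 μg/mL. MIC taken as lowest concentration inhibiting growth; Gram-positive panel includes recent clinical isolates resistant to methicillin, penicillin and/or vancomycin.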

Staphylococcus sp. = conditions: broth dilution, 18 hours at 35° C.
Method in brief: as §1

Streptococcus sp. = conditions: broth dilution, 18 hours at 35° C.
Method in brief: as §1

Escherichia coli = conditions: 18 hours at 35° C.

CC(c1ccccc1)C1NC(=O)CNC(=O)C(CO)NC(=O)C(C(O)C2CNC(=N)N2C2OC(CO)C(O)C(O)C2O)NC(=O)C(C(O)C2CNC(=N)N2)NC(=O)C(Cc2ccc(OC3OC(CO)C(OC4OC(COCc5cccs5)C(O)C(O)C4O)C(O)C3O)cc2)NC1=O (stereo not shown) [Example 244]
MIC Enterococcus avium (GC 4558) (Enterococcus sp.): 32 µg/mL (≈ 23 µM) | MIC Enterococcus faecalis (ATCC 29212) (Enterococcus sp.): 32 µg/mL (≈ 23 µM) | MIC Enterococcus faecalis (GC 2242) (Enterococcus sp.): 32 µg/mL (≈ 23 µM) | MIC Enterococcus faecalis (GC 2691) (Enterococcus sp.): 32 µg/mL (≈ 23 µM) | MIC Enterococcus faecalis (GC 3059) (Enterococcus sp.): 64 µg/mL (≈ 46 µM) | MIC Enterococcus faecalis (GC 4552) (Enterococcus sp.): 32 µg/mL (≈ 23 µM) | MIC Enterococcus faecalis (GC 4553) (Enterococcus sp.): 32 µg/mL (≈ 23 µM) | MIC Enterococcus faecalis (GC 4554) (Enterococcus sp.): 64 µg/mL (≈ 46 µM) | MIC Enterococcus faecalis (GC 6189) (Enterococcus sp.): 32 µg/mL (≈ 23 µM) | MIC Enterococcus faecium (GC 2243) (Enterococcus sp.): 32 µg/mL (≈ 23 µM) | MIC Enterococcus faecium (GC 4556) (Enterococcus sp.): 32 µg/mL (≈ 23 µM) | MIC Enterococcus faecium (GC 4557) (Enterococcus sp.): 4 µg/mL (≈ 2.87 µM) | MIC Enterococcus faecalis (ATCC 29212) (Enterococcus sp.; strain ATCC 29212): 32 µg/mL (≈ 23 µM) | MIC Enterococcus faecium (GC 2243) (Enterococcus sp.; strain GC 2243): 32 µg/mL (≈ 23 µM) | MIC Enterococcus faecalis (GC 4552) (Enterococcus sp.; strain GC 4552): 32 µg/mL (≈ 23 µM) | MIC Enterococcus faecalis (GC 4553) (Enterococcus sp.; strain GC 4553): 32 µg/mL (≈ 23 µM) | MIC Enterococcus faecalis (GC 4554) (Enterococcus sp.; strain GC 4554): 64 µg/mL (≈ 46 µM) | MIC Enterococcus faecium (GC 4556) (Enterococcus sp.; strain GC 4556): 32 µg/mL (≈ 23 µM) | MIC Enterococcus faecium (GC 4557) (Enterococcus sp.; strain GC 4557): 4 µg/mL (≈ 2.87 µM) | MIC Enterococcus avium (GC 4558) (Enterococcus sp.; strain GC 4558): 32 µg/mL (≈ 23 µM) | MIC Enterococcus faecalis (GC 6189) (Enterococcus sp.; strain GC 6189): 32 µg/mL (≈ 23 µM) | MIC Enterococcus faecalis (GC 2242) (Enterococcus sp.; inoculum 5×10^5 CFU/mL, strain GC 2242): 32 µg/mL (≈ 23 µM) | MIC Enterococcus faecalis (GC 2691) (Enterococcus sp.; inoculum 5×10^5 CFU/mL, strain GC 2691): 32 µg/mL (≈ 23 µM) | MIC Enterococcus faecalis (GC 3059) (Enterococcus sp.; inoculum 5×10^5 CFU/mL, strain GC 3059): 64 µg/mL (≈ 46 µM) | MIC Coagulase Negative Staphylococcus (GC 4547) (Staphylococcus sp.): 4 µg/mL (≈ 2.87 µM) | MIC Coagulase Negative Staphylococcus (GC 4548) (Staphylococcus sp.): 2 µg/mL (≈ 1.44 µM) | MIC Coagulase Negative Staphylococcus (GC 4549) (Staphylococcus sp.): 2 µg/mL (≈ 1.44 µM) | MIC Coagulase Negative Staphylococcus (GC 4551) (Staphylococcus sp.): 4 µg/mL (≈ 2.87 µM) | MIC Coagulase Negative Staphylococcus (GC 6257) (Staphylococcus sp.): 2 µg/mL (≈ 1.44 µM) | MIC Staphylococcus aureus (ATCC 29213) (Staphylococcus sp.): 8 µg/mL (≈ 5.75 µM) | MIC Staphylococcus aureus (GC 1131) (Staphylococcus sp.): 8 µg/mL (≈ 5.75 µM) | MIC Staphylococcus aureus (GC 3051) (Staphylococcus sp.): 8 µg/mL (≈ 5.75 µM) | MIC Staphylococcus aureus (GC 3053) (Staphylococcus sp.): 16 µg/mL (≈ 11.5 µM) | MIC Staphylococcus aureus (GC 4541) (Staphylococcus sp.): 8 µg/mL (≈ 5.75 µM) | MIC Staphylococcus aureus (GC 4542) (Staphylococcus sp.): 1 µg/mL (≈ 0.719 µM) | MIC Staphylococcus aureus (GC 4544) (Staphylococcus sp.): 8 µg/mL (≈ 5.75 µM) | MIC Staphylococcus aureus (GC 4545) (Staphylococcus sp.): 8 µg/mL (≈ 5.75 µM) | MIC Staphylococcus aureus-SMITH (GC 4543) (Staphylococcus sp.): 4 µg/mL (≈ 2.87 µM) | MIC Staphylococcus haemolyticus (GC 4546) (Staphylococcus sp.): 4 µg/mL (≈ 2.87 µM) | MIC Staphylococcus aureus (ATCC 29213) (Staphylococcus sp.; strain ATCC 29213): 8 µg/mL (≈ 5.75 µM) | MIC Staphylococcus aureus (GC 1131) (Staphylococcus sp.; strain GC 1131): 8 µg/mL (≈ 5.75 µM) | MIC Staphylococcus aureus (GC 3051) (Staphylococcus sp.; strain GC 3051): 8 µg/mL (≈ 5.75 µM) | MIC Staphylococcus aureus (GC 3053) (Staphylococcus sp.; strain GC 3053): 16 µg/mL (≈ 11.5 µM) | MIC Staphylococcus aureus (GC 4541) (Staphylococcus sp.; strain GC 4541): 8 µg/mL (≈ 5.75 µM) | MIC Staphylococcus aureus (GC 4542) (Staphylococcus sp.; strain GC 4542): 1 µg/mL (≈ 0.719 µM) | MIC Staphylococcus aureus-SMITH (GC 4543) (Staphylococcus sp.; strain GC 4543): 4 µg/mL (≈ 2.87 µM) | MIC Staphylococcus aureus (GC 4544) (Staphylococcus sp.; strain GC 4544): 8 µg/mL (≈ 5.75 µM) | MIC Staphylococcus aureus (GC 4545) (Staphylococcus sp.; strain GC 4545): 8 µg/mL (≈ 5.75 µM) | MIC Staphylococcus haemolyticus (GC 4546) (Staphylococcus sp.; strain GC 4546): 4 µg/mL (≈ 2.87 µM) | MIC Coagulase Negative Staphylococcus (GC 4547) (Staphylococcus sp.; strain GC 4547): 4 µg/mL (≈ 2.87 µM) | MIC Coagulase Negative Staphylococcus (GC 4548) (Staphylococcus sp.; strain GC 4548): 2 µg/mL (≈ 1.44 µM) | MIC Coagulase Negative Staphylococcus (GC 4549) (Staphylococcus sp.; strain GC 4549): 2 µg/mL (≈ 1.44 µM) | MIC Coagulase Negative Staphylococcus (GC 4551) (Staphylococcus sp.; strain GC 4551): 4 µg/mL (≈ 2.87 µM) | MIC Coagulase Negative Staphylococcus (GC 6257) (Staphylococcus sp.; strain GC 6257): 2 µg/mL (≈ 1.44 µM) | MIC Streptococcus agalactiae (GC 4564) (Streptococcus sp.): 4 µg/mL (≈ 2.87 µM) | MIC Streptococcus pneumoniae (ATCC 6301) (Streptococcus sp.): 1 µg/mL (≈ 0.719 µM) | MIC Streptococcus pneumoniae (GC 1894) (Streptococcus sp.): 0.5 µg/mL (≈ 0.359 µM) | MIC Streptococcus pneumoniae (GC 4565) (Streptococcus sp.): 1 µg/mL (≈ 0.719 µM) | MIC Streptococcus pyogenes (GC 4563) (Streptococcus sp.): 2 µg/mL (≈ 1.44 µM) | MIC Streptococcus pneumoniae (ATCC 6301) (Streptococcus sp.; inoculum 5×10^5 CFU/mL, strain ATCC 6301): 1 µg/mL (≈ 0.719 µM) | MIC Streptococcus pneumoniae (GC 1894) (Streptococcus sp.; inoculum 5×10^5 CFU/mL, strain GC 1894): 0.5 µg/mL (≈ 0.359 µM) | MIC Streptococcus pyogenes (GC 4563) (Streptococcus sp.; inoculum 5×10^5 CFU/mL, strain GC 4563): 2 µg/mL (≈ 1.44 µM) | MIC Streptococcus agalactiae (GC 4564) (Streptococcus sp.; inoculum 5×10^5 CFU/mL, strain GC 4564): 4 µg/mL (≈ 2.87 µM) | MIC Streptococcus pneumoniae (GC 4565) (Streptococcus sp.; inoculum 5×10^5 CFU/mL, strain GC 4565): 1 µg/mL (≈ 0.719 µM) | MIC Escherichia coli (ATCC 25922) (Escherichia coli): >64 µg/mL | MIC Escherichia coli (GC 4559) (Escherichia coli): 64 µg/mL (≈ 46 µM) | MIC Escherichia coli (GC 4560) (Escherichia coli): 2 µg/mL (≈ 1.44 µM)
